Reference: patent US5233062A, “Antibiotic eicosenoic acids” (Merck & Co., Inc., priority 1992, dated 1993)

Columns and labels:
Experiment in all cases: antifungal disc diffusion assay
Type in all cases: cell-based
[1] = tested on: Cryptococous neoformans
Experimental: (§1) The antifungal activity of the compounds may be detected in an antifungal assay employing disc diffusion methods against a panel of representative yeasts, filamentous fungi (molds) and bacteria.
(§2) For carrying out the assay, seeded assay plates are prepared in the following manner according to the type of assay strain.
(§3) Inocula for yeasts and Streptomyces strains are prepared from overnight broth cultures then diluted into potato dextrose […] to a final concentration of either 40 percent or 70 percent transmission at 660 nm.
(§4) The seeded agar media thus prepared are dispensed into Petri dishes for assays (11 milliliters per dish).
(§5) The samples to be tested for production of antifungal agent are applied to 6.2 mm. filter paper discs (25 microliter/disc) and air dried at 24° C. When the sample to be tested is crude broth, it may be centrifuged prior to application. The discs bearing the material to be tested are then applied employing sterile conditions to be seeded assay plates and the sample rewet with 25 percent sterile aqueous dimethysulfoxide (25 μl/disc). The assay plates are then incubated at either 28° C. or 37° C. for 24 hours.
(§6) Following incubation, the inhibition zones are measured and recorded. The measurements are made from the extreme edge where growth differs from the background zone. The zones are noted as to appearance as fuzzy edge and clear center, hazy throughout, slightly hazy, very hazy or ringed.

[2] = tested on: Saccharomyces cerevisiae
Experimental: as §1, §2, §3
(§7) For strains of Candida albicans and Saccharomyces cerevisiae, sterile saline is employed in place of potato dextrose broth. Assay plates are prepared by diluting the inoculum into appropriate molten agar medium, cooled to 45° C. to obtain a final concentration of 4 percent.
as §4, §5, §6

[3] = tested on: Candida albicans
Experimental: as §1, §2, §3, §7, §4, §5, §6

[4] = tested on: Candida neoformans
Experimental: as §1, §2, §3, §4, §5, §6

[5] = tested on: Candida pseudotropicalis
Experimental: as §1, §2, §3, §4, §5, §6

[6] = tested on: Candida parapsilosis
Experimental: as §1, §2, §3, §4, §5, §6

[7] = tested on: Alternaria solani; settings: filamentous fungus Alternaria solani
Experimental: as §1, §2
(§8) Inocula for filamentous fungi are prepared by scraping the surface of stock plates maintained on potato dextrose agar with a moistened sterile dacron swab. The spores and mycelia are then suspended in 10 milliliters of sterile potato dextrose broth and adjusted to 70 percent transmission at 660 nm.
as §4, §5
(§9) Following incubation, the inhibition zones are measured and recorded. The measurements are made from the extreme edge where growth differs from the background zone. […]

[8] = tested on: Ceratocystis ulmi; settings: filamentous fungus Ceratocystis ulmi
Experimental: as §1, §2, §8, §4, §5, §9

| SMILES | antifungal activity [1] | antifungal activity [2] | antifungal activity [3] | antifungal activity [4] | antifungal activity [5] | antifungal activity [6] | antifungal activity [7] | antifungal activity [8] |
| --- | --- | --- | --- | --- | --- | --- | --- | --- |
| CCCCCCC(=O)CCCCCC/C=C/C(O)C(O)C(O)C(C)(N)C(=O)O (stereo not drawn) [Compound IB] | active | active | active | – | – | – | – | – |
| CCCCCCC(=O)CCCCCC/C=C/C(O)C(O)C(O)C(N)(CO)C(=O)O (stereo not drawn) [Compound IA] | – | – | active | active | active | active | very strong antifungal activity | very strong antifungal activity |
